Among the test systems are MALME-3M melanoma; MDA-MB-435; MOLT-4 leukemia; OVCAR-3 ovarian; RXF 393 renal; HCT-116 colon; SW-620 colon; HOP-62 NSCLC; T-47D breast; SK-MEL-2 melanoma.
Holding throughout (assay): NCI-60 cell line screen, 48 h

Our source for the TGI values is PubChem BioAssay (NCI).

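Test compounds were applied to cells in 96-well plates for 48 hours at 5 doses. TGI is the concentration that stops growth completely.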

Regarding `O=S(=O)(O)c1cc(S(=O)(=O)O)c2c(N=Nc3ccc(N=Nc4ccccc4)cc3)c(O)ccc2c1`, the TGI with MALME-3M melanoma, in the assay on MDA-MB-435, in the assay on MOLT-4 leukemia, in the assay on OVCAR-3 ovarian, with RXF 393 renal and in the assay on HCT-116 colon was greater than 100 µM throughout. Moreover, the TGI in the assay on SW-620 colon, with HOP-62 NSCLC, in the assay on T-47D breast and with SK-MEL-2 melanoma was greater than 100 µM in each case.
As to `CC(=O)c1sc2[n+](c1C)C(=O)/C(=C\c1ccccc1Cl)S2`, the TGI in the assay on MALME-3M melanoma is 32.4 µM; in the assay with MDA-MB-435, 28.9 µM; in the assay on MOLT-4 leukemia it was greater than 100 µM; with OVCAR-3 ovarian it was 35.8 µM; in the assay on RXF 393 renal, 47.4 µM; with HCT-116 colon, 37.6 µM. For the same compound, the TGI came out at 31.1 µM in the assay on SW-620 colon, 47.7 µM in the assay on HOP-62 NSCLC, 36.2 µM in the assay on T-47D breast and 55.8 µM with SK-MEL-2 melanoma.
For the compound `O=c1cc(N2CCCC2)[nH]c(=O)n1-c1ccc(Cl)cc1`, the TGI in the assay with MALME-3M melanoma, in the assay with MDA-MB-435, with MOLT-4 leukemia, with OVCAR-3 ovarian, in the assay with RXF 393 renal and with HCT-116 colon was greater than 100 µM each time. The TGI in the assay on SW-620 colon, with HOP-62 NSCLC, in the assay on T-47D breast and in the assay with SK-MEL-2 melanoma was greater than 100 µM in each case.
Take `CC(C)NC(=O)OCc1c(COC(=O)NC(C)C)c(-c2cc[n+](COC(=O)C3CCCCC3)cc2)n2c1CCC2`: the TGI in the assay with MALME-3M melanoma, with MDA-MB-435, in the assay on MOLT-4 leukemia, in the assay on OVCAR-3 ovarian, with RXF 393 renal and with HCT-116 colon was greater than 100 µM each time. The TGI with SW-620 colon, in the assay on HOP-62 NSCLC, in the assay with T-47D breast and in the assay on SK-MEL-2 melanoma was greater than 100 µM in each case.
On to `O=C1C(c2c(O)[nH]c3ccc(S(=O)(=O)NCCO)cc23)=Nc2ccccc21`, for which the TGI was greater than 100 µM in the assay on MALME-3M melanoma; greater than 100 µM in the assay on MDA-MB-435; 36.6 µM in the assay with MOLT-4 leukemia; 18.3 µM with OVCAR-3 ovarian; 18.9 µM in the assay on RXF 393 renal; 16.2 µM with HCT-116 colon. Besides, the TGI in the assay on SW-620 colon was greater than 100 µM; in the assay with HOP-62 NSCLC, greater than 100 µM; in the assay on T-47D breast it was 50.4 µM; in the assay with SK-MEL-2 melanoma, 17.9 µM.
Consider `C[C@H](CCC(=O)NCC(=O)O)[C@H]1CC[C@H]2[C@@H]3[C@H](O)C[C@@H]4C[C@H](O)CC[C@]4(C)[C@H]3CC[C@]12C`, for which the TGI in the assay with MALME-3M melanoma, with MDA-MB-435, in the assay with MOLT-4 leukemia, in the assay on OVCAR-3 ovarian, with RXF 393 renal and in the assay with HCT-116 colon was greater than 100 µM each time. Further, the TGI in the assay with SW-620 colon, with HOP-62 NSCLC, in the assay on T-47D breast and with SK-MEL-2 melanoma was greater than 100 µM each time.
For `Cc1ccc(/C=C2/N=C(N/N=C\c3ccccc3)NC2=O)cc1`, the TGI was greater than 100 µM in the assay on MALME-3M melanoma; 69.7 µM in the assay with MDA-MB-435; 72.2 µM in the assay with MOLT-4 leukemia; greater than 100 µM in the assay on OVCAR-3 ovarian; 66 µM with RXF 393 renal; greater than 100 µM in the assay with HCT-116 colon. Further, the TGI in the assay on SW-620 colon, in the assay with HOP-62 NSCLC, with T-47D breast and in the assay on SK-MEL-2 melanoma was greater than 100 µM in each case.
In the case of `O=P(O)(O)CN1CCNCCN(CP(=O)(O)O)CC1`, the TGI in the assay on MALME-3M melanoma is greater than 100 µM; in the assay with MDA-MB-435 it was greater than 100 µM; in the assay with MOLT-4 leukemia, greater than 100 µM; in the assay with OVCAR-3 ovarian, greater than 100 µM; with RXF 393 renal, greater than 100 µM; in the assay on HCT-116 colon, greater than 38 µM. The TGI in the assay on SW-620 colon, in the assay with HOP-62 NSCLC, in the assay with T-47D breast and in the assay with SK-MEL-2 melanoma was greater than 100 µM throughout.
In the case of `CCOC(=O)C1=C(C)N(Cc2ccccc2)C2(O)C=CC(=O)C3=C(O)c4ccccc4C(=O)C312` (stereo not given), the TGI is 8.35 µM with MALME-3M melanoma; 27.5 µM in the assay with MDA-MB-435; greater than 100 µM with MOLT-4 leukemia; 20.2 µM in the assay on OVCAR-3 ovarian; 19.7 µM in the assay on RXF 393 renal; 21.8 µM in the assay with HCT-116 colon. In addition, the TGI in the assay with SW-620 colon amounted to 28.2 µM; in the assay with HOP-62 NSCLC, 31.8 µM; with T-47D breast, 45 µM; in the assay with SK-MEL-2 melanoma, 30.4 µM.
As to `O=C1N(c2ccccc2)C(=S)/C(=C/c2ccc(Cl)cc2)N1c1ccc(Cl)cc1`, the TGI in the assay with MALME-3M melanoma was 63.9 µM; with MDA-MB-435 it was greater than 100 µM; in the assay with MOLT-4 leukemia it was 13.5 µM; with OVCAR-3 ovarian, greater than 100 µM; with RXF 393 renal it was greater than 100 µM; in the assay with HCT-116 colon, greater than 100 µM. The TGI with SW-620 colon, in the assay on HOP-62 NSCLC, with T-47D breast and in the assay with SK-MEL-2 melanoma was greater than 100 µM each time.
For `COC(=O)C(NC(=O)OC(C)(C)C)P(=O)(OC)OC` (stereo not given), the TGI in the assay on MALME-3M melanoma, in the assay on MDA-MB-435, with MOLT-4 leukemia, in the assay with OVCAR-3 ovarian, in the assay with RXF 393 renal and in the assay with HCT-116 colon was greater than 100 µM each time. Moreover, the TGI in the assay with SW-620 colon, in the assay on HOP-62 NSCLC, in the assay on T-47D breast and in the assay with SK-MEL-2 melanoma was greater than 100 µM throughout.
As for `CN(C)CCNC(=O)c1c(O)ccc2c1c1c(n2CCc2ccccc2)C(=O)c2ccccc2C1=O`, the TGI in the assay with MALME-3M melanoma was found to be 9.35 µM; with MDA-MB-435, 5.08 µM; in the assay with MOLT-4 leukemia, 16.2 µM; in the assay on OVCAR-3 ovarian it was 28.1 µM; with RXF 393 renal it was 5.17 µM; in the assay on HCT-116 colon it was 10.5 µM. The TGI amounted to 20.6 µM in the assay on SW-620 colon, 23.1 µM in the assay on HOP-62 NSCLC, 8.5 µM in the assay with T-47D breast and 10.7 µM in the assay on SK-MEL-2 melanoma.
As to `O=c1[nH]nc(-c2ccccc2)n1-n1cnnc1`, the TGI with MALME-3M melanoma, in the assay with MDA-MB-435, with MOLT-4 leukemia, with OVCAR-3 ovarian, in the assay with RXF 393 renal and with HCT-116 colon was greater than 100 µM each time. The TGI with SW-620 colon, in the assay with HOP-62 NSCLC, with T-47D breast and in the assay with SK-MEL-2 melanoma was greater than 100 µM each time.
